Laboratory results published in patent publication US6469028B1, “Synthesis and use of retinoid compounds having negative hormone and/or anatgonist activities” (Allergan, Inc., priority 1995, dated 2002).

Experiments:
[1] = system: TPA-induced Str-AP1-CAT expression; assay: Example 13: anti-AP-1 activity, Str-AP1-CAT and pRS-hRARα in HeLa cells; format: cell-based; conditions: AGN 193109 alone, 10^−10 to 10^−8 M
[2] = system: TPA-induced AP-1 activity; assay: Example 15: anti-AP-1 activity, Str-AP1-CAT in HeLa cells; format: cell-based
Experimental: HeLa cells were transfected with 1 μg of Str-AP1-CAT using LIPOFECTAMINE according to the method described by Nagpal et al. in J. Biol. Chem. 270:923 (1995). Transfected cells were treated with AGN 193109 alone (10^−9 to 10^−7 M), 1,25-dihydroxyvitamin D3 alone (10^−12 to 10^−7 M) or 1,25-dihydroxyvitamin D3 (10^−12 to 10^−7 M) in the presence of 10^−8 M AGN 193109.

[3] = system: MRP-8 expression in primary foreskin keratinocytes; assay: Example 20: MRP-8 expression in keratinocytes (RT-PCR); format: cell-based, human; conditions: AGN 191183 10^−7 M or AGN 193109 10^−6 M, 3 days
Text: Primary foreskin keratinocytes were isolated according to the procedure described by Nagpal et al. in J. Biol. Chem. 270:923 (1995) and cultured in keratinocyte growth medium (KGM) that was purchased from Clonetics. […] The mRNA was reverse transcribed into cDNA which then served as the template in a PCR amplification protocol using primers specific for either the glyceraldehyde phosphate dehydrogenase (GAPDH) housekeeping gene or MRP-8. The GAPDH primers had the sequences [NT] ID NO:6) and [NT] ID NO:7). The MRP-8 primers had the sequences [NT] ID NO:8) and [NT] ID NO:9). An aliquot from the MRP-8 amplification reaction (10 μl) was removed after every cycle of PCR amplification starting from 12 cycles and ending at 21 cycles. Similarly, an aliquot of the GAPDH amplification reaction was removed after every PCR cycle starting at 15 cycles and ending at 24 cycles. […] The staining intensity of the amplification products served as a quantitative measure of the amount of starting MRNA specific for the given primer set.

CaSki cell tumors = assay: Example 22: CaSki cell tumor growth in nude mice; format: in vivo; conditions: 20 μMol/kg AGN 193109 in corn oil daily, intragastric
Experimental: 1×10^6 CaSki cells are injected into each of a panel of nude mice. Tumor formation is assessed using techniques that will be familiar to one having ordinary skill in the art. After injection, mice are randomly divided into control and test groups. The control group receives a placebo. The test group is administered with AGN 193109. Animals administered with the placebo receive intragastric intubation of corn oil. The test animals receive 20 μMol/kg AGN 193109 in corn oil daily for the period of the treatment. Tumor volume is measured in […] using graduated calipers. Tumor volume is plotted as function of time.

[4] = system: cultured cervical carcinoma cells; assay: Example 23: cultured cervical carcinoma cells from a patient biopsy; format: cell-based; conditions: 10^−10 to 10^−6 M
Text: A patient presenting with an advanced cervical carcinoma is first identified. A cervical biopsy is obtained according to methods that will be familiar to one having ordinary skill in the art. Cells from the explanted tumor are propagated in tissue culture according to standard techniques to provide cell numbers sufficient to allow division into three sample groups. Culture conditions described by Agarwal et al. in Cancer Res. 54:2108 (1994) are employed for this purpose. The first group is reserved as a control and receives vehicle alone (ethanol). The second group is treated with the RAR agonist retinoic acid at a concentration of from 10^−10 to 10^−6 M. The third group is treated with AGN 193109 at doses ranging from 10^−10 to 10^−6 M. Cells are fed with fresh growth medium daily and are provided with the retinoids described above as appropriate for each sample group. Cells are counted after three days using an electric cell counter.

[5] = system: patients having retinal detachment resulting from PVR; conditions: 40 mg oral AGN 193109 + 4 mg oral 13-cis retinoic acid twice daily for four weeks
RARα = biological target: T1, RARα (Homo sapiens, UniProt P10276); assay: Transactivation in CV-1 cells, ΔMTV-TREp-Luc reporter; format: cell-based; set-up: expressed in transfected cells; host or cells: green monkey CV-1 cells; conditions: 10^−9 to 10^−6 M, 18 hours
T1 sequence (P10276 1-462): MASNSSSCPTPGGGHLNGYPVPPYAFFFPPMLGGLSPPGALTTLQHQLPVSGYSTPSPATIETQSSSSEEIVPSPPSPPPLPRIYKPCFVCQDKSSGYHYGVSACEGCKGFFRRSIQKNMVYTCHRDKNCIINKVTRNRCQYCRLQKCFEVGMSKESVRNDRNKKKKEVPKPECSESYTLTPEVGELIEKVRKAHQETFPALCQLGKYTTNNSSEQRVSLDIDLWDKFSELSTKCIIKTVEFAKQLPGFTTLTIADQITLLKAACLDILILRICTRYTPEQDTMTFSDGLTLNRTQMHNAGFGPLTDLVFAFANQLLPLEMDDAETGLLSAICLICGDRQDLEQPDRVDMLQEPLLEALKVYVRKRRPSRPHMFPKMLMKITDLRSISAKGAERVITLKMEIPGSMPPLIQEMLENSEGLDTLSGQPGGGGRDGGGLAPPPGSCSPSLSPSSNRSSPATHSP
Experimental: AGN 193109 was also tested for its ability to transactivate RARs in CV-1 cells transiently cotransfected with RAR expression vectors and a retinoid responsive reporter gene construct. Receptor expression vectors pRShRAR-α (Giguere et al. Nature 330:624 (1987)), pRShRAR-β (Benbrook et al. Nature 333:669 (1988)) and pRShRAR-γ (Ishikawa et al. Mol. Endocrinol. 4:837 (1990)) were separately cotransfected with the ΔMTV-TREp-Luc reporter plasmid. Use of this luciferase reporter plasmid has been disclosed by Heyman et al. in Cell 68:397 (1992). The ΔMTV-TREp-Luc plasmid is essentially identical to the ΔMTV-TREp-CAT reporter construct described by Umesono et al. in Nature 336:262 (1988), except that the chloramphenicol acetyltransferase (CAT) reporter gene was substituted by a polynucleotide sequence encoding firefly luciferase. Transfection of green monkey CV-1 cells was carried out using the calcium phosphate coprecipitation method described in Molecular Cloning: A Laboratory Manual (Sambrook et al. eds. Cold Spring Harbor Lab Publ. 1989). CV-1 cells were plated at a density of 4×10^4/well in 12 well multiwell plates and transiently transfected with a calcium phosphate precipitate containing 0.7 μg of reporter plasmid and 0.1 μg of receptor plasmid according to standard laboratory procedures. […]

**Q.** How did the “inhibition of AP-1 mediated reporter activity” value [1] turn out when `Cc1ccc(C2=CCC(C)(C)c3ccc(C#Cc4ccc(C(=O)O)cc4)cc32)cc1` [Compound 60, 4-[(5,6-dihydro-5,5-dimethyl-8-(4-methylphenyl)-2-naphthalenyl)ethynyl]benzoic acid] was run?
**A.** did not substantially inhibit

**Q.** And the anti-AP-1 activity ([2]; AGN 193109 alone, 10^−9 to 10^−7 M)?
**A.** no detectable anti-AP-1 activity

**Q.** What about the “anti-AP-1 activity of 1,25-dihydroxyvitamin D3” value ([2]; in the presence of 10^−8 M AGN 193109) of the same compound?
**A.** anti-AP-1 activity was detectable at 10^−10 and 10^−9 M 1,25-dihydroxyvitamin D3

**Q.** And the “MRP-8 mRNA expression” value [3]?
**A.** repressed MRP8 expression

**Q.** What about the tumor growth rate (CaSki cell tumors) of the same compound?
**A.** tumors which are significantly reduced in their growth rate

**Q.** And the “cell number after three days” value [4]?
**A.** dose-dependent decrease in cell number

**Q.** And the “therapeutic outcome versus 40 mg oral 13-cis retinoic acid” value [5]?
**A.** equal to or better than

**Q.** And the “EC50 (nM) RAR-α” value (RARα)?
**A.** No Activity
